Reference: US20230085307A1, “PYRIDAZINONE COMPOUND AND HERBICIDE” (NISSAN CHEMICAL CORPORATION, priority 2019, published 2023)

How the values were obtained:
windgrass [1] = test: Test Example 5: herbicidal effect by foliage application, plastic box (Table 20, symbol L); type: in vivo, windgrass (Apera spica-venti); settings: foliage application, 320 g/ha
In short: (§1)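 Foliar spray test: emulsion formulation diluted in water to a set application rate, sprayed onto 14-day-old plants raised in diluvial soil at 25° C to 30° C under glass. Both herbicidal effect and crop effect rated visually three weeks later.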

green foxtail [2] = test: Test Example 4: herbicidal effect by soil treatment (Table 19, symbol G); type: in vivo, green foxtail (Setaria viridis); settings: amount of applied herbicide 320 g/ha
In short: (§2)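 Step 1: sow seeds in sterilized diluvial soil, cover ~1.5 cm. Step 2: spray diluted emulsion onto soil surface at predetermined rate. Step 3: greenhouse, 25–30° C, three weeks. Step 4: grade effect on each plant by earlier criteria.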

Italian ryegrass [3] = test: Test Example 4: herbicidal effect by soil treatment (Table 19, symbol K); type: in vivo, Italian ryegrass (Lolium multiflorum); settings: amount of applied herbicide 320 g/ha
In short: as §2

barnyard grass [4] = test: Test Example 3: herbicidal effect by foliage application, Wagner pot (Table 18, symbol H); type: in vivo, barnyard grass (Echinochloa crus-galli)
In short: (§3)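 Plants were sown in alluvial soil held under 0.1–0.5 cm standing water and grown 14 days in a greenhouse at 25–30 °C. An emulsifiable formulation, water-diluted to the set dose, was then sprayed onto the foliage, and effects were scored three weeks later using previously defined criteria.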

false cleavers [5] = test: Test Example 4: herbicidal effect by soil treatment (Table 19, symbol Q); type: in vivo, false cleavers (Galium spurium); settings: amount of applied herbicide 320 g/ha
In short: as §2

redroot pigweed [6] = test: Test Example 4: herbicidal effect by soil treatment (Table 19, symbol N); type: in vivo, redroot pigweed (Amaranthus retroflexus); settings: amount of applied herbicide 320 g/ha
In short: as §2

false cleavers [7] = test: Test Example 5: herbicidal effect by foliage application, plastic box (Table 20, symbol Q); type: in vivo, false cleavers (Galium spurium); settings: foliage application, 320 g/ha
In short: as §1

chickweed [8] = test: Test Example 4: herbicidal effect by soil treatment (Table 19, symbol P); type: in vivo, common chickweed (Stellaria media); settings: amount of applied herbicide 320 g/ha
In short: as §2

Japanese bulrush = test: Test Example 2: herbicidal activity, application during weed generation under submerged conditions (Table 17, symbol B); type: in vivo, Japanese bulrush (Schoenoplectus juncoides); settings: AAH 320 g/ha; application during weed generation, submerged conditions
In short: (§4)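 Mixed weed seedlings in alluvial soil under a 4 cm water layer, greenhouse-grown at 25–30° C. Compound given as a diluted emulsion into the floodwater at the 1–2 leaf stage; response graded after three weeks.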

wild oat [9] = test: Test Example 5: herbicidal effect by foliage application, plastic box (Table 20, symbol I); type: in vivo, wild oat (Avena fatua); settings: foliage application, 320 g/ha
In short: as §1

velvetleaf [10] = test: Test Example 4: herbicidal effect by soil treatment (Table 19, symbol M); type: in vivo, velvetleaf (Abutilon theophrasti); settings: amount of applied herbicide 320 g/ha
In short: as §2

southern crabgrass [11] = test: Test Example 5: herbicidal effect by foliage application, plastic box (Table 20, symbol F); type: in vivo, southern crabgrass (Digitaria ciliaris); settings: foliage application, 320 g/ha
In short: as §1

persian speedwell [12] = test: Test Example 5: herbicidal effect by foliage application, plastic box (Table 20, symbol R); type: in vivo, Persian speedwell (Veronica persica); settings: foliage application, 320 g/ha
In short: as §1

late watergrass = test: Test Example 2: herbicidal activity, application during weed generation under submerged conditions (Table 17, symbol A); type: in vivo, late watergrass (Echinochloa oryzicola); settings: AAH 320 g/ha; application during weed generation, submerged conditions
In short: as §4

barnyard grass [13] = test: Test Example 5: herbicidal effect by foliage application, plastic box (Table 20, symbol H); type: in vivo, barnyard grass (Echinochloa crus-galli); settings: foliage application, 320 g/ha
In short: as §1

southern crabgrass [14] = test: Test Example 4: herbicidal effect by soil treatment (Table 19, symbol F); type: in vivo, southern crabgrass (Digitaria ciliaris); settings: amount of applied herbicide 320 g/ha
In short: as §2

oval-leafed pondweed = test: Test Example 2: herbicidal activity, application during weed generation under submerged conditions (Table 17, symbol C); type: in vivo, oval-leafed pondweed (Monochoria vaginalis); settings: AAH 320 g/ha; application during weed generation, submerged conditions
In short: as §4

green foxtail [15] = test: Test Example 5: herbicidal effect by foliage application, plastic box (Table 20, symbol G); type: in vivo, green foxtail (Setaria viridis); settings: foliage application, 320 g/ha
In short: as §1

rice flat sedge = test: Test Example 3: herbicidal effect by foliage application, Wagner pot (Table 18, symbol E); type: in vivo, rice flat sedge (Cyperus iria)
In short: as §3

persian speedwell [16] = test: Test Example 4: herbicidal effect by soil treatment (Table 19, symbol R); type: in vivo, Persian speedwell (Veronica persica); settings: amount of applied herbicide 320 g/ha
In short: as §2

velvetleaf [17] = test: Test Example 5: herbicidal effect by foliage application, plastic box (Table 20, symbol M); type: in vivo, velvetleaf (Abutilon theophrasti); settings: foliage application, 320 g/ha
In short: as §1

wild oat [18] = test: Test Example 4: herbicidal effect by soil treatment (Table 19, symbol I); type: in vivo, wild oat (Avena fatua); settings: amount of applied herbicide 320 g/ha
In short: as §2

blackgrass [19] = test: Test Example 5: herbicidal effect by foliage application, plastic box (Table 20, symbol J); type: in vivo, blackgrass (Alopecurus myosuroides); settings: foliage application, 320 g/ha
In short: as §1

redroot pigweed [20] = test: Test Example 5: herbicidal effect by foliage application, plastic box (Table 20, symbol N); type: in vivo, redroot pigweed (Amaranthus retroflexus); settings: foliage application, 320 g/ha
In short: as §1

chickweed [21] = test: Test Example 5: herbicidal effect by foliage application, plastic box (Table 20, symbol P); type: in vivo, common chickweed (Stellaria media); settings: foliage application, 320 g/ha
In short: as §1

barnyard grass [22] = test: Test Example 4: herbicidal effect by soil treatment (Table 19, symbol H); type: in vivo, barnyard grass (Echinochloa crus-galli); settings: amount of applied herbicide 320 g/ha
In short: as §2

lambsquarters [23] = test: Test Example 5: herbicidal effect by foliage application, plastic box (Table 20, symbol O); type: in vivo, lambsquarters (Chenopodium album); settings: foliage application, 320 g/ha
In short: as §1

Chinese sprangletop = test: Test Example 3: herbicidal effect by foliage application, Wagner pot (Table 18, symbol D); type: in vivo, chinese sprangletop (Leptochloa chinensis)
In short: as §3

Italian ryegrass [24] = test: Test Example 5: herbicidal effect by foliage application, plastic box (Table 20, symbol K); type: in vivo, Italian ryegrass (Lolium multiflorum); settings: foliage application, 320 g/ha
In short: as §1

blackgrass [25] = test: Test Example 4: herbicidal effect by soil treatment (Table 19, symbol J); type: in vivo, blackgrass (Alopecurus myosuroides); settings: amount of applied herbicide 320 g/ha
In short: as §2

windgrass [26] = test: Test Example 4: herbicidal effect by soil treatment (Table 19, symbol L); type: in vivo, windgrass (Apera spica-venti); settings: amount of applied herbicide 320 g/ha
In short: as §2

lambsquarters [27] = test: Test Example 4: herbicidal effect by soil treatment (Table 19, symbol O); type: in vivo, lambsquarters (Chenopodium album); settings: amount of applied herbicide 320 g/ha
In short: as §2

[28] = evaluated three weeks after application
[29] = amount of applied herbicide 320 g/ha

COc1ccc(-c2sc3ccccc3c2-c2c(O)c(C)nn(C)c2=O)cc1C [1-068]
herbicidal effect grade, L: windgrass (windgrass [1]; three weeks after application): 0 (Herbicidal rate of 5% or less (almost no effect))
herbicidal effect rating, G: green foxtail (green foxtail [2]): 4 (Herbicidal rate of 70% or more and less than 90%)
herbicidal effect rating, K: Italian ryegrass (Italian ryegrass [3]): 2 (Herbicidal rate of 20% or more and less than 40%)
herbicidal effect on H (barnyard grass), rating 0-5 (barnyard grass [4]; 320 g/ha): 3 (Herbicidal rate of 40% or more and less than 70%)
herbicidal effect rating, Q: false cleavers (false cleavers [5]): 0 (Herbicidal rate of 5% or less (almost no effect))
herbicidal effect rating, N: redroot pigweed (redroot pigweed [6]): 0 (Herbicidal rate of 5% or less (almost no effect))
herbicidal effect grade, Q: false cleavers (false cleavers [7]; three weeks after application): 0 (Herbicidal rate of 5% or less (almost no effect))
herbicidal effect rating, P: chickweed (chickweed [8]): 2 (Herbicidal rate of 20% or more and less than 40%)
herbicidal effect rating, B: Japanese bulrush (Japanese bulrush): 1 (Herbicidal rate of 5% or more and less than 20%)
herbicidal effect grade, I: wild oat (wild oat [9]; three weeks after application): 1 (Herbicidal rate of 5% or more and less than 20%)
herbicidal effect rating, M: velvetleaf (velvetleaf [10]): 0 (Herbicidal rate of 5% or less (almost no effect))
herbicidal effect grade, F: southern crabgrass (southern crabgrass [11]; three weeks after application): 3 (Herbicidal rate of 40% or more and less than 70%)
herbicidal effect grade, R: persian speedwell (persian speedwell [12]; three weeks after application): 5 (Herbicidal rate of 90% or more (almost completely withered))
herbicidal effect rating, A: late watergrass (late watergrass): 0 (Herbicidal rate of 5% or less (almost no effect))
herbicidal effect grade, H: barnyard grass (barnyard grass [13]; three weeks after application): 3 (Herbicidal rate of 40% or more and less than 70%)
herbicidal effect rating, F: southern crabgrass (southern crabgrass [14]): 0 (Herbicidal rate of 5% or less (almost no effect))
herbicidal effect rating, C: oval-leafed pondweed (oval-leafed pondweed): 3 (Herbicidal rate of 40% or more and less than 70%)
herbicidal effect grade, G: green foxtail (green foxtail [15]; three weeks after application): 3 (Herbicidal rate of 40% or more and less than 70%)
herbicidal effect on E (rice flat sedge), rating 0-5 (rice flat sedge; 320 g/ha): 5 (Herbicidal rate of 90% or more (almost completely withered))
herbicidal effect rating, R: persian speedwell (persian speedwell [16]): 4 (Herbicidal rate of 70% or more and less than 90%)
herbicidal effect grade, M: velvetleaf (velvetleaf [17]; three weeks after application): 3 (Herbicidal rate of 40% or more and less than 70%)
herbicidal effect rating, I: wild oat (wild oat [18]): 0 (Herbicidal rate of 5% or less (almost no effect))
herbicidal effect grade, J: blackgrass (blackgrass [19]; three weeks after application): 0 (Herbicidal rate of 5% or less (almost no effect))
herbicidal effect grade, N: redroot pigweed (redroot pigweed [20]; three weeks after application): 0 (Herbicidal rate of 5% or less (almost no effect))
herbicidal effect grade, P: chickweed (chickweed [21]; three weeks after application): 5 (Herbicidal rate of 90% or more (almost completely withered))
herbicidal effect rating, H: barnyard grass (barnyard grass [22]): 4 (Herbicidal rate of 70% or more and less than 90%)
herbicidal effect grade, O: lambsquarters (lambsquarters [23]; three weeks after application): 3 (Herbicidal rate of 40% or more and less than 70%)
herbicidal effect on D (Chinese sprangletop), rating 0-5 (Chinese sprangletop; 320 g/ha): 1 (Herbicidal rate of 5% or more and less than 20%)
herbicidal effect grade, K: Italian ryegrass (Italian ryegrass [24]; three weeks after application): 3 (Herbicidal rate of 40% or more and less than 70%)
herbicidal effect rating, J: blackgrass (blackgrass [25]): 0 (Herbicidal rate of 5% or less (almost no effect))

CCCC(=O)Oc1c(C)nn(C)c(=O)c1-c1c(-c2ccc3c(c2)OCCO3)sc2ccc(Cl)cc12 [2-128]
L: windgrass, herbicidal effect rating (windgrass [26]): 0 (Herbicidal rate of 5% or less (almost no effect))
herbicidal effect on L: windgrass (windgrass [1]; [28]): 0 (Herbicidal rate of 5% or less (almost no effect))
G: green foxtail, herbicidal effect rating (green foxtail [2]): 0 (Herbicidal rate of 5% or less (almost no effect))
K: Italian ryegrass, herbicidal effect rating (Italian ryegrass [3]): 0 (Herbicidal rate of 5% or less (almost no effect))
herbicidal effect on H: barnyard grass (barnyard grass [4]; [29]): 3 (Herbicidal rate of 40% or more and less than 70%)
Q: false cleavers, herbicidal effect rating (false cleavers [5]): 0 (Herbicidal rate of 5% or less (almost no effect))
N: redroot pigweed, herbicidal effect rating (redroot pigweed [6]): 0 (Herbicidal rate of 5% or less (almost no effect))
herbicidal effect on Q: false cleavers (false cleavers [7]; [28]): 0 (Herbicidal rate of 5% or less (almost no effect))
P: chickweed, herbicidal effect rating (chickweed [8]): 1 (Herbicidal rate of 5% or more and less than 20%)
herbicidal effect rating, B: Japanese bulrush (Japanese bulrush): 0 (Herbicidal rate of 5% or less (almost no effect))
herbicidal effect on I: wild oat (wild oat [9]; [28]): 0 (Herbicidal rate of 5% or less (almost no effect))
M: velvetleaf, herbicidal effect rating (velvetleaf [10]): 0 (Herbicidal rate of 5% or less (almost no effect))
herbicidal effect on F: southern crabgrass (southern crabgrass [11]; [28]): 0 (Herbicidal rate of 5% or less (almost no effect))
herbicidal effect on R: persian speedwell (persian speedwell [12]; [28]): 5 (Herbicidal rate of 90% or more (almost completely withered))
herbicidal effect rating, A: late watergrass (late watergrass): 0 (Herbicidal rate of 5% or less (almost no effect))
herbicidal effect on H: barnyard grass (barnyard grass [13]; [28]): 0 (Herbicidal rate of 5% or less (almost no effect))
F: southern crabgrass, herbicidal effect rating (southern crabgrass [14]): 0 (Herbicidal rate of 5% or less (almost no effect))
herbicidal effect rating, C: oval-leafed pondweed (oval-leafed pondweed): 3 (Herbicidal rate of 40% or more and less than 70%)
herbicidal effect on G: green foxtail (green foxtail [15]; [28]): 0 (Herbicidal rate of 5% or less (almost no effect))
O: lambsquarters, herbicidal effect rating (lambsquarters [27]): 0 (Herbicidal rate of 5% or less (almost no effect))
herbicidal effect on E: rice flat sedge (rice flat sedge; [29]): 0 (Herbicidal rate of 5% or less (almost no effect))
R: persian speedwell, herbicidal effect rating (persian speedwell [16]): 5 (Herbicidal rate of 90% or more (almost completely withered))
herbicidal effect on M: velvetleaf (velvetleaf [17]; [28]): 2 (Herbicidal rate of 20% or more and less than 40%)
I: wild oat, herbicidal effect rating (wild oat [18]): 0 (Herbicidal rate of 5% or less (almost no effect))
herbicidal effect on J: blackgrass (blackgrass [19]; [28]): 0 (Herbicidal rate of 5% or less (almost no effect))
herbicidal effect on N: redroot pigweed (redroot pigweed [20]; [28]): 3 (Herbicidal rate of 40% or more and less than 70%)
herbicidal effect on P: chickweed (chickweed [21]; [28]): 5 (Herbicidal rate of 90% or more (almost completely withered))
H: barnyard grass, herbicidal effect rating (barnyard grass [22]): 0 (Herbicidal rate of 5% or less (almost no effect))
herbicidal effect on O: lambsquarters (lambsquarters [23]; [28]): 1 (Herbicidal rate of 5% or more and less than 20%)
herbicidal effect on D: Chinese sprangletop (Chinese sprangletop; [29]): 0 (Herbicidal rate of 5% or less (almost no effect))
herbicidal effect on K: Italian ryegrass (Italian ryegrass [24]; [28]): 0 (Herbicidal rate of 5% or less (almost no effect))
